Organism: Rattus norvegicus
Assay: DrugMatrix - Regimen: Daily Repeat
Format: toxicity, organism-based, Sprague-Dawley
Design: regimen Daily Repeat, gender Male, age 6-8 weeks
Details: in vivo, po, route oral GAVAGE, vehicle 100 % WATER; for ABSOLUTE BASOPHIL / ABSOLUTE EOSINOPHIL / ABSOLUTE LYMPHOCYTE / ABSOLUTE MONOCYTE / ABSOLUTE SEGMENTED NEUTROPHIL / BASOPHIL / EOSINOPHIL / ERYTHROCYTE COUNT / HEMATOCRIT / HEMOGLOBIN / LEUKOCYTE COUNT / LYMPHOCYTE / MEAN CORPUSCULAR HEMOGLOBIN / MEAN CORPUSCULAR HEMOGLOBIN CONCENTRATION / MEAN CORPUSCULAR VOLUME / MONOCYTE / NEUTROPHIL / NUCLEATED RED BLOOD CELLS / PLATELET COUNT: tissue Blood; for ALANINE AMINOTRANSFERASE / ALBUMIN / ALKALINE PHOSPHATASE / ASPARTATE AMINOTRANSFERASE / BLOOD UREA NITROGEN / CARBON DIOXIDE / CHLORIDE / CHOLESTEROL / CREATINE PHOSPHOKINASE / CREATININE / GLUCOSE / LACTATE DEHYDROGENASE / LIPASE / PHOSPHORUS / POTASSIUM / SODIUM / TOTAL BILIRUBIN / TOTAL PROTEIN / URIC ACID: tissue Plasma
[1] = 15 mg/kg, 120 h, dose level Low, time 5 day
[2] = 79 mg/kg, 72 h, dose level High, time 3 day
[3] = 79 mg/kg, 120 h, dose level High, time 5 day

NNC(=O)c1ccncc1 [ISONIAZID]
ABSOLUTE BASOPHIL [1]: 0 CELLS/uL | ABSOLUTE EOSINOPHIL [1]: 0 CELLS/uL | ABSOLUTE LYMPHOCYTE [1]: 13245.33 CELLS/uL | ABSOLUTE MONOCYTE [1]: 507 CELLS/uL | ABSOLUTE SEGMENTED NEUTROPHIL [1]: 1614.33 CELLS/uL | BASOPHIL [1]: 0% | EOSINOPHIL [1]: 0% | ERYTHROCYTE COUNT [1]: 5.42 x10E6/uL | HEMATOCRIT [1]: 33.8% | HEMOGLOBIN [1]: 12.8 G/DL | LEUKOCYTE COUNT [1]: 15.37 x10E3/uL | LYMPHOCYTE [1]: 85% | MEAN CORPUSCULAR HEMOGLOBIN [1]: 23.67 pg | MEAN CORPUSCULAR HEMOGLOBIN CONCENTRATION [1]: 37.9 G/DL | MEAN CORPUSCULAR VOLUME [1]: 62.47 fL | MONOCYTE [1]: 3.33% | NEUTROPHIL [1]: 11.67% | NUCLEATED RED BLOOD CELLS [1]: 0 /100WBC | PLATELET COUNT [1]: 1239.67 x10E3/uL | ALANINE AMINOTRANSFERASE [1]: 47 u/L | ALBUMIN [1]: 4.33 G/DL | ALKALINE PHOSPHATASE [1]: 384.67 u/L | ASPARTATE AMINOTRANSFERASE [1]: 85 u/L | BLOOD UREA NITROGEN [1]: 16.67 mg/dL | CARBON DIOXIDE [1]: 23.67 mmol/L | CHLORIDE [1]: 102.67 MEQ/L | CHOLESTEROL [1]: 76 mg/dL | CREATINE PHOSPHOKINASE [1]: 246.67 u/L | CREATININE [1]: 0.47 mg/dL | GLUCOSE [1]: 188.33 mg/dL | LACTATE DEHYDROGENASE [1]: 93.67 u/L | LIPASE [1]: 11 u/L | PHOSPHORUS [1]: 11.47 mg/dL | POTASSIUM [1]: 5.97 MEQ/L | SODIUM [1]: 146 MEQ/L | TOTAL BILIRUBIN [1]: 0.23 mg/dL | TOTAL PROTEIN [1]: 6.3 G/DL | URIC ACID [1]: 2.17 mg/dL | ABSOLUTE BASOPHIL [2]: 0 CELLS/uL | ABSOLUTE EOSINOPHIL [2]: 46.33 CELLS/uL | ABSOLUTE LYMPHOCYTE [2]: 10642.67 CELLS/uL | ABSOLUTE MONOCYTE [2]: 65.33 CELLS/uL | ABSOLUTE SEGMENTED NEUTROPHIL [2]: 779 CELLS/uL | BASOPHIL [2]: 0% | EOSINOPHIL [2]: 0.33% | ERYTHROCYTE COUNT [2]: 6 x10E6/uL | HEMATOCRIT [2]: 38.67% | HEMOGLOBIN [2]: 14.03 G/DL | LEUKOCYTE COUNT [2]: 11.53 x10E3/uL | LYMPHOCYTE [2]: 91.67% | MEAN CORPUSCULAR HEMOGLOBIN [2]: 23.4 pg | MEAN CORPUSCULAR HEMOGLOBIN CONCENTRATION [2]: 36.3 G/DL | MEAN CORPUSCULAR VOLUME [2]: 64.47 fL | MONOCYTE [2]: 0.67% | NEUTROPHIL [2]: 7.33% | NUCLEATED RED BLOOD CELLS [2]: 0 /100WBC | PLATELET COUNT [2]: 1065.67 x10E3/uL | ALANINE AMINOTRANSFERASE [2]: 19 u/L | ALBUMIN [2]: 4.9 G/DL | ALKALINE PHOSPHATASE [2]: 349 u/L | ASPARTATE AMINOTRANSFERASE [2]: 74.33 u/L | BLOOD UREA NITROGEN [2]: 22.67 mg/dL | CARBON DIOXIDE [2]: 25.67 mmol/L | CHLORIDE [2]: 101.67 MEQ/L | CHOLESTEROL [2]: 80 mg/dL | CREATINE PHOSPHOKINASE [2]: 463.67 u/L | CREATININE [2]: 0.29 mg/dL | GLUCOSE [2]: 227.33 mg/dL | LACTATE DEHYDROGENASE [2]: 268 u/L | LIPASE [2]: 9.67 u/L | PHOSPHORUS [2]: 14.17 mg/dL | POTASSIUM [2]: 7.15 MEQ/L | SODIUM [2]: 146.23 MEQ/L | TOTAL BILIRUBIN [2]: 0.13 mg/dL | TOTAL PROTEIN [2]: 6.77 G/DL | URIC ACID [2]: 3.97 mg/dL | ABSOLUTE BASOPHIL [3]: 0 CELLS/uL | ABSOLUTE EOSINOPHIL [3]: 53 CELLS/uL | ABSOLUTE LYMPHOCYTE [3]: 13139.33 CELLS/uL | ABSOLUTE MONOCYTE [3]: 527.33 CELLS/uL | ABSOLUTE SEGMENTED NEUTROPHIL [3]: 647 CELLS/uL | BASOPHIL [3]: 0% | EOSINOPHIL [3]: 0.33% | ERYTHROCYTE COUNT [3]: 5.87 x10E6/uL | HEMATOCRIT [3]: 36.03% | HEMOGLOBIN [3]: 13.4 G/DL | LEUKOCYTE COUNT [3]: 14.37 x10E3/uL | LYMPHOCYTE [3]: 91.67% | MEAN CORPUSCULAR HEMOGLOBIN [3]: 22.8 pg | MEAN CORPUSCULAR HEMOGLOBIN CONCENTRATION [3]: 37.17 G/DL | MEAN CORPUSCULAR VOLUME [3]: 61.33 fL | MONOCYTE [3]: 3.67% | NEUTROPHIL [3]: 4.33% | NUCLEATED RED BLOOD CELLS [3]: 0.33 /100WBC | PLATELET COUNT [3]: 1389.67 x10E3/uL | ALANINE AMINOTRANSFERASE [3]: 28 u/L | ALBUMIN [3]: 4.37 G/DL | ALKALINE PHOSPHATASE [3]: 359.67 u/L | ASPARTATE AMINOTRANSFERASE [3]: 83.67 u/L | BLOOD UREA NITROGEN [3]: 17 mg/dL | CARBON DIOXIDE [3]: 24.67 mmol/L | CHLORIDE [3]: 102.33 MEQ/L | CHOLESTEROL [3]: 63.67 mg/dL | CREATINE PHOSPHOKINASE [3]: 505 u/L | CREATININE [3]: 0.21 mg/dL | GLUCOSE [3]: 173 mg/dL | LACTATE DEHYDROGENASE [3]: 177.33 u/L | LIPASE [3]: 10.33 u/L | PHOSPHORUS [3]: 12.07 mg/dL | POTASSIUM [3]: 6.62 MEQ/L | SODIUM [3]: 143.8 MEQ/L | TOTAL BILIRUBIN [3]: 0.17 mg/dL | TOTAL PROTEIN [3]: 6.3 G/DL | URIC ACID [3]: 2.17 mg/dL

From ChEMBL document CHEMBL3885881, “DrugMatrix”
